Measured values taken from patent US10188674B2, “Parenteral formulations for administering macrolide antibiotics” (Cempra Pharmaceuticals, Inc., priority 2012, dated 2019).
Each block holds one molecule with its values, some of them ahead of it.

Columns and labels:
monkey = test: 28 day toxicology study, intravenous infusion, monkey; type: in vivo; settings: 28 days, tartrate-buffered solution of 1 mg/mL in 3% mannitol infused at approximately 1 mL/min
Source text: (§1) An intravenous infusion solution of SOL and related compounds suitable for treatment in a disease such as moderately severe to severe community acquired bacterial pneumonia (CABP) is needed. […] However, without being bound by theory, it is believed herein that infusion at higher concentrations and/or at higher rates of infusion, which are highly desirable in the clinical setting, may not be practical with current formulations due to the substantially lower solubility observed with SOL and related compounds compared to other macrolide, enolide, and ketolide compounds.

[1] = test system: New Zealand White female rabbits; test: Tolerance Evaluation, Multiple-Dose Rabbit Ear Vein Model Study; type: in vivo
Experimental: Tolerance Evaluation of Following Intravenous Infusion in the Rabbit. Multiple-Dose Rabbit Ear Vein Model Study. New Zealand White female rabbits weighing 2.5-3.2 kg are evaluated for pain, ear inflammation and phlebitis after receiving an intravenous infusion of test compound once daily for 5 days.
SOL is dissolved in a 0.5% lactic acid formulation at pH 4, and then into 0.45% saline at concentrations of 2 mg/mL or 3 mg/mL.
Four rabbits are dosed; one vehicle-dosed and one each at 2 mg/mL (rate of 3 mL/min), 3 mg/mL (rate of 3 mL/min) and 3 mg/mL (rate of 4 mL/min). All rabbits receive a dose volume of 5 mL and are dosed via intravenous infusion in the right marginal ear vein once daily for 5 days. Animals are observed during and post (30 minutes) each infusion and reactions recorded.

[2] = Acid dissociation constants of SOL; type: physicochemical
Source text: [drawing 4] and pharmaceutically acceptable salts, hydrates, solvates, esters, and prodrugs thereof. The following acid dissociation constants are observed for SOL, pKa1=9.44; pKa2=3.5. Such dissociation constants are illustrative of compounds that may be characterized as having low basicity.

[3] = Dynamic Precipitation Model (absorbance at 500 nm on infusion into blood surrogate); type: physicochemical
Experimental: Dynamic Precipitation Model. The dynamic precipitation apparatus is shown in FIG. 1, and is also described in Johnson et al., (2003). The apparatus includes a predetermined distance, illustratively a 15 cm distance, between the tip of the injection needle and the UV flow cell, and three main components to simulate blood flow and different infusion rates of drug. Illustratively, a Cole-Palmer-Masterflex® 7520-00 peristaltic pump is used to direct the flow of blood surrogate at 5 mL/min. Illustratively, a Harvard Apparatus Precision Syringe Pump 22 is used to infuse drug formulations into the system at various injection rates. Illustratively, a Cary UV-50 Bio Spectrophotometer with a 1.00 cm flow cell is used to monitor absorbance as a measure of precipitation in the formulation-blood surrogate system. Each sample is prepared by dissolving test compound and formulation agents into water or vehicle, and adjusting the pH with either 1 M HCl or 1 M NaOH, as appropriate to the indicated final concentration of test compound. Lactic, citric, and tartaric acid formulation agent stock solutions are made by dissolving the predetermined weight of solid or liquid into water and adjusting pH with either 1 M HCl or 1 M NaOH. The blood surrogate (Isotonic Sorensen's Phosphate Buffer, 0.067 M, pH 7.4) is pumped from a reservoir through Tygon® tubing (R-6306) fitted with 2 IV-set Y-injection sites that pass into the flow cell and terminate in a waste container. […]-35 flow meter, along with a timer and graduated cylinder, is used to measure the rate of surrogate blood flow through the system. Illustratively, flow is 5 mL/min. The test compound formulations are infused at different rates through the downstream second Y-injection site into the flow of the blood surrogate entering into the flow cell. A 0.001 M HCl solution is injected into the first Y-injection site following each infusion of test compound to flush the downstream tubing and flow cell. All injections are performed at 25° C. The spectrophotometer software (Cary UVWin) is set to read a constant absorbance, illustratively 500 nm, versus time. Samples are made with buffer and drug concentrations as described. After the flow rate is confirmed at 5 mL/min, the spectrophotometer is set to record absorbance at 500 nm for 5-10 minutes, and injections are performed at different rates as specified. To prevent any residual precipitation build up in the tubing or flow cell, a flush of pH 3 HCl is performed between injections. The flow cell is optionally visually inspected between runs for the presence of precipitation. Static precipitation measurements are also optionally performed by a two-fold serial dilution of test compound formulation in blood surrogate using a laser pointer as a Tyndall beam to determine the presence of particulates. […] An absorbance at or above 0.05 is considered to be the threshold level for assessing precipitation having phlebitic potential.

dog = test: 28 day toxicology study, intravenous infusion, dog; type: in vivo; settings: 28 days, tartrate-buffered solution of 1 mg/mL in 3% mannitol infused at approximately 1 mL/min
Source text: as §1

[4] = test system: New Zealand White female rabbits; test: Pain Tolerance Evaluation, Single Dose Rabbit Ear Vein Model Study; type: in vivo; settings: single dose infusions in marginal ear vein, observed during and 30 minutes post infusion
Experimental: Pain Tolerance Evaluation Following Intravenous Infusion in Rabbit. Single Dose Rabbit Ear Vein Model Study. New Zealand White female rabbits weighing 2.5-3.2 kg are evaluated for pain, ear inflammation and phlebitis after intravenous infusion of test compound. Commercial azithromycin citrate is used as a positive control.
CEM-101 lyo (SOL (250.0 mg), mannitol, USP (250.0 mg), L(+)-tartaric acid, USP (29.0 mg), sodium hydroxide, NF (for pH adjustment to pH 4.2)) is reconstituted in a vehicle or formulation as described herein. The placebo is the same formulation without SOL. The reconstituted SOL or placebo is dissolved in an appropriate vehicles, such as 0.45% saline, 0.5% lactic acid at pH 4 in 0.45% saline, 0.5% lactic acid with 10 mM tartaric acid at pH 4 in 0.45% saline. CEM-101 lyo is dissolved in the appropriate vehicle at concentrations of 2 mg/mL or 3 mg/mL. The CEM-101 placebo formulation is dissolved in 0.45% saline. All rabbits are weighed to calculate dosing volumes.
Azithromycin lyophilized vials are commercially available azithromycin citrate for injection (ZITHROMAX IV) in lyophilized form in a 10-mL vial equivalent to 500 mg of azithromycin for intravenous administration. […]
Animals were observed during and post (30 minutes) each infusion, and reactions were scored according to a modified Draize Score and recorded. […]

pKa1 [2]: 9.44
pKa2 [2]: 3.5
Absorbance ([3]; 1 mg/mL in 0.45% Saline, 0.3 mL/min): BQL
Absorbance ([3]; 1 mg/mL in 0.45% Saline, 1.0 mL/min): BQL
Absorbance ([3]; 1 mg/mL in 0.45% Saline, 3.0 mL/min): BQL
Absorbance ([3]; 1 mg/mL in 0.45% Saline, 6.0 mL/min): about 0.1
injection rates at which precipitation is noted ([3]; 1 mg/mL in 5% Mannitol): greater than or equal to 3.0 mL/min
Absorbance ([3]; 1 mg/mL in 5% Mannitol, 0.3 mL/min): BQL
Absorbance ([3]; 1 mg/mL in 5% Mannitol, 1.0 mL/min): BQL
Absorbance ([3]; 1 mg/mL in 5% Mannitol, 3.0 mL/min): 0.01
Absorbance ([3]; 1 mg/mL in 5% Mannitol, 6.0 mL/min): about 0.05
precipitation ([3]; 2 mg/mL in 10 mM Tartaric Acid in 5% Mannitol, pH 4.2, 3 mL/min, infusion 1 minute): minimal precipitation
precipitation ([3]; 2 mg/mL in 20 mM Tartaric Acid in 5% Mannitol, pH 4.2, 3 mL/min, infusion 1 minute): minimal precipitation
precipitation ([3]; 2 mg/mL in 38.5 mM Tartaric Acid and 0.5% Monothioglycerol in 3% Mannitol, pH 4.0, 2, 3 or 4 mL/min, infusion 5 minutes): minimal precipitation
precipitation ([3]; 2 mg/mL in 38.5 mM Tartaric Acid in 5% Mannitol, pH 4.0, 2, 3 or 4 mL/min, infusion 5 minutes): minimal precipitation
Absorbance ([3]; 2 mg/mL in 0.45% Saline, 0.3 mL/min): BQL
Absorbance ([3]; 2 mg/mL in 0.45% Saline, 1.0 mL/min): BQL
Absorbance ([3]; 2 mg/mL in 0.45% Saline, 3.0 mL/min): about 0.02
Absorbance ([3]; 2 mg/mL in 0.45% Saline, 6.0 mL/min): about 0.1
injection rates at which precipitation is noted ([3]; 2 mg/mL in 5% Mannitol): greater than or equal to 1.0 mL/min
Absorbance ([3]; 2 mg/mL in 5% Mannitol, 0.3 mL/min): BQL
Absorbance ([3]; 2 mg/mL in 5% Mannitol, 1.0 mL/min): about 0.03
Absorbance ([3]; 2 mg/mL in 5% Mannitol, 3.0 mL/min): about 0.06
Absorbance ([3]; 2 mg/mL in 5% Mannitol, 6.0 mL/min): about 0.1
injection rates at which precipitation is noted ([3]; 3 mg/mL in 0.45% Saline): greater than or equal to 1.0 mL/min
Absorbance ([3]; 3 mg/mL in 0.45% Saline, 0.3 mL/min): BQL
Absorbance ([3]; 3 mg/mL in 0.45% Saline, 1.0 mL/min): about 0.02
Absorbance ([3]; 3 mg/mL in 0.45% Saline, 3.0 mL/min): about 0.1
Absorbance ([3]; 3 mg/mL in 0.45% Saline, 6.0 mL/min): about 0.3
injection rates at which precipitation is noted ([3]; 3 mg/mL in 5% Mannitol): greater than or equal to 1.0 mL/min
Absorbance ([3]; 3 mg/mL in 5% Mannitol, 0.3 mL/min): BQL
Absorbance ([3]; 3 mg/mL in 5% Mannitol, 1.0 mL/min): about 0.1
Absorbance ([3]; 3 mg/mL in 5% Mannitol, 3.0 mL/min): about 0.4
Absorbance ([3]; 3 mg/mL in 5% Mannitol, 6.0 mL/min): about 0.6
Absorbance ([3]; 3 mg/mL, 3 mL/min, pH 4.0, 0.9% NaCl): − ((−) = ≥0.05)
injection rates at which precipitation is noted ([3]; 2 or 1 mg/mL in 0.45% saline, 1.0 mL/min is borderline): greater than 1.0 mL/min
Molecule: CC[C@H]1OC(=O)[C@@](C)(F)C(=O)[C@H](C)[C@@H](O[C@@H]2O[C@H](C)C[C@H](N(C)C)[C@H]2O)[C@](C)(OC)C[C@@H](C)C(=O)[C@H](C)[C@H]2N(CCCCn3cc(-c4cccc(N)c4)nn3)C(=O)O[C@]12C [SOL, solithromycin]
pain or other adverse events (monkey): without evidence of pain or other adverse events
observations, Days 4 and 5 ([1]; 2 mg/mL, rate of 3 mL/min, also seen in the vehicle-treated rabbit): mechanical irritation around the needle stick, without reaction distal to the needle
further observation ([1]; 3 mg/mL, rate of 4 mL/min): Head and ear twitching
observations, Day 3 until day 5 ([1]; 3 mg/mL, rates of 3 or 4 mL/min): vessel dilation and irritation around and past the needle stick
adverse effects, Days 1 and 2 ([1]; 0.5% lactic acid formulation pH 4 in 0.45% saline, 5 mL once daily for 5 days, any of the rabbits): No adverse effects
effect of tartaric acid on observed precipitation ([3]; 3 mg/mL in 5 mM Tartaric Acid in 5% Mannitol pH 4.2 vs SOL 2 mg/mL in 5% Mannitol, 2 or 3 mL/min, infusion 2 minutes): substantially decreases the amount of observed precipitation
effect of citrate buffer on precipitation ([3]; 0.5, 1 and 5 mM citrate buffer (pH 4) in 0.45% saline, 2 mg/mL and 3 mg/mL): does not significantly reduce precipitation
effect of tartrate buffer on precipitation ([3]; 10 or 25 mM tartrate buffer (pH 4) in 0.45% saline, 2 mg/mL and 3 mg/mL): does not significantly reduce precipitation
pain or other adverse events (dog): without evidence of pain or other adverse events

Absorbance ([3]; 2 mg/mL, 3 mL/min, 0.9% NaCl): ++++ ((++++) = BQL of <0.003)
Molecule: CC[C@H]1OC(=O)[C@H](C)[C@@H](O[C@H]2C[C@@](C)(OC)[C@@H](O)[C@H](C)O2)[C@H](C)[C@@H](O[C@@H]2O[C@H](C)C[C@H](N(C)C)[C@H]2O)[C@](C)(O)C[C@@H](C)C(=O)[C@H](C)[C@@H](O)[C@]1(C)O [erythromycin-lactobionate, erythromycin lactobionate, reference compound]

Absorbance ([3]; 2 mg/mL, 4 mL/min, 0.45% NaCl): ++++ ((++++) = BQL of <0.003)
precipitation ([3]; citrate buffered solution in 0.45% saline at 2 mg/mL and 4 mL/min): does not exhibit precipitation and BQL
Molecule: Azithromycin Citrate [Azitromycin citrate, reference compound]
reactions upon test article administration [4]: strong movement of ear, head and body with vocalization
